Article PMC6222509, “Dibasic Derivatives of Phenylcarbamic Acid against Mycobacterial Strains: Old Drugs and New Tricks?” (Molecules : A Journal of Synthetic Chemistry and Natural …, 2018)
≈ marks a conversion by molar mass, not a printed value. Read-outs that look alike come from different tables or passages of the source.

Assays:
[1] = test system: Mycobacterium tuberculosis CNCTC My 331/88 (identical with H37Rv and ATCC 2794; MTv H37Rv); assay: in vitro antimycobacterial MIC, dilution micromethod in Šula's semisynthetic medium; assay type: cell-based; settings: Mycobacterium tuberculosis
[2] = test system: M. kansasii DSM 44162 (MK DSM); assay: in vitro antimycobacterial MIC, broth dilution micromethod in Middlebrook 7H9; assay type: cell-based; settings: Mycobacterium kansasii, DSM 44162 / DSM 7, 168 h
[3] = test system: M. smegmatis ATCC 700084 (MS); assay: as above; assay type: cell-based, Mycobacterium smegmatis; settings: Mycolicibacterium smegmatis, ATCC700084, 72 h
[4] = test system: M. marinum CAMP 5644 (MM); assay: as above; assay type: cell-based, Mycobacterium marinum
[5] = surface tension, drop count method, Traube stalagmometer; assay type: physicochemical; settings: aqueous solution c = 2.0 × 10^−3 M, 21 °C; water γ = 0.07259 N/m
Method: Surface tension (relative surface activity; γ) of aqueous solutions of the compounds 1a–p (c = 2.0 × 10^−3 M) was determined by a drop count technique using a Traube stalagmometer. All evaluated substances were able to decrease surface tension of water (γ = 0.07259 N/m) at 21 °C.
Surface tension (relative surface activity; γ) of the derivatives 1a–p was determined by a drop count method using a glassy Traube stalagmometer (Kavalier Glass, Prague, Czech Republic). Number of drops of compounds’ and reference solutions were counted between upper and lower marks of the stalagmometer. Aqueous solutions of the molecules 1a–p were prepared with distilled, deionized water (c = 2.0 × 10^−3 M). […] The drops were allowed to form at constant temperature 21 °C. The experimental procedure was described in a paper. Current measurements were done in six replicates and average γ values (in N/m units) were reported (Table 1).

[6] = electronic properties, UV/Vis spectrophotometry of methanolic solutions; assay type: physicochemical; settings: methanolic solution c = 8.0 × 10^−5 M; for log ε2 (Ch-T): charge-transfer maximum λ2 (Ch-T) = 236–238 nm; for log ε1: λ1 = 208–210 nm; for log ε3: λ3 = 278–280 nm
Source text: Electronic properties of the molecules 1a–p (Table 1) were characterized by logarithms of molar absorption coefficients (log ε) of their methanolic solutions (c = 8.0 × 10^−5 M) investigated in the UV/Vis region of an electromagnetic spectrum.
Positions of these absorption bands in the spectrum were typical for derivatives of (substituted) phenylcarbamic acid and the bands were assigned as first local excitation (λ3), charge-transfer (λ2 (Ch-T)) and second local excitation (λ1) absorption maxima, respectively. The λ1 and λ2 (Ch-T) maxima of 2-alkoxy substituted compounds 1a–d and 1i–l were slightly lower compared to those of their 3-alkoxy substituted positional isomers 1e–h and 1m–p (Table 1), respectively.
The UV/Vis spectra of methanolic solutions of analyzed compounds 1a–p (c = 8.0 × 10^−5 M) were observed on the 8452A Diode Array spectrophotometer HP-8452A (Hewlett-Packard, Palo Alto, CA, USA) at 21 °C. Methanol for UV-spectroscopy (Merck, Darmstadt, Germany) was used for preparation of these solutions. Results of the UV/Vis analyses were collected and stored digitally using the ChemStation controller software (Agilent Technologies, Waldbronn, Germany). The HP-8452A apparatus measured a complete range of compounds’ spectrum from 190 nm to 820 nm.
The log ε values for presently observed absorption maxima were calculated following the Lambert-Beer’s law, which was discussed in [35], for example, and expressed by Equation (16):A = ε × c × l(16) where the A parameter represented absorbance of a compound’s solution, the ε descriptor was a molar absorption coefficient (in L/mol/cm units) and l was path length (in cm units).

[7] = 336 h, 14-day cultivation, read-out: MIC MTv H37Rv 14-d
[8] = 504 h, 21-day cultivation, read-out: MIC MTv H37Rv 21-d
[9] = 7-day cultivation, 37 °C, read-out: MIC MK DSM 7-d
[10] = read-out: MIC MS 3-d, 3-day cultivation, 37 °C
[11] = Mycobacterium marinum, 504 h, 21-day cultivation, 28 °C, read-out: MIC MM 21-d
[12] = 3-day cultivation, 37 °C, read-out: MIC MS 3-d
[13] = read-out: MIC MK DSM 7-d, 7-day cultivation, 37 °C
[14] = Mycobacterium marinum, 504 h, read-out: MIC MM 21-d, 21-day cultivation, 28 °C

SMILES | MIC [1, 7] [µM] | MIC [1, 8] [µM] | MIC [2, 9] [µM] | MIC [3, 10] [µM] | MIC [4, 11] [µM] | surface tension γ (relative surface activity) [5] [N/m] | log ε2 (Ch-T) [6] | log ε1 [6] | log ε3 [6] | MIC [3, 12] [µM] | MIC [2, 13] [µM] | MIC [4, 14] [µM] | MIC ([4]; 21-day cultivation, 28 °C, read-out: MIC MM 21-d) [µM]
CCCCOc1ccccc1NC(=O)OC(CN(CCC)CCC)CN1CCCC1 (stereo not shown) [1a] | 32 (≈ 13.4 µg/mL) | 32 (≈ 13.4 µg/mL) | 53 (≈ 22.2 µg/mL) | 213 (≈ 89.4 µg/mL) | 106 (≈ 44.5 µg/mL) | 0.06464 | 4.19 | 4.51 | 3.63 | – | – | – | –
CCCCCOc1ccccc1NC(=O)OC(CN(CCC)CCC)CN1CCCC1 (stereo not shown) [1b] | 16 (≈ 6.94 µg/mL) | 32 (≈ 13.9 µg/mL) | 26.1 (≈ 11.3 µg/mL) | – | 52 (≈ 22.5 µg/mL) | 0.06366 | 4.05 | 4.39 | 3.51 | 104 (≈ 45.1 µg/mL) | – | – | –
CCCCCCOc1ccccc1NC(=O)OC(CN(CCC)CCC)CN1CCCC1 (stereo not shown) [1c] | 16 (≈ 7.16 µg/mL) | 16 (≈ 7.16 µg/mL) | 12.7 (≈ 5.69 µg/mL) | – | 25.5 (≈ 11.4 µg/mL) | 0.06222 | 4.52 | 4.58 | 3.49 | 51 (≈ 22.8 µg/mL) | – | – | –
CCCCCCCOc1ccccc1NC(=O)OC(CN(CCC)CCC)CN1CCCC1.Cl.Cl (stereo not shown) [1d, 1-[2-[({[2-(heptyl-oxy)phenyl]amino}carbonyl)oxy]-3-(dipropylammonio)propyl]pyrrolidinium dichloride] | 8 | 8 | – | 24.9 | – | 0.05985 | 4.08 | 4.43 | 3.55 | – | 6.2 | 12.5 | –
CCCCOc1cccc(NC(=O)OC(CN(CCC)CCC)CN2CCCC2)c1 (stereo not shown) [1e] | 16 (≈ 6.71 µg/mL) | 32 (≈ 13.4 µg/mL) | 16.2 (≈ 6.8 µg/mL) | – | 32.5 (≈ 13.6 µg/mL) | 0.06316 | 4.24 | 4.65 | 3.59 | 16.2 (≈ 6.8 µg/mL) | – | – | –
CCCCCOc1cccc(NC(=O)OC(CN(CCC)CCC)CN2CCCC2)c1.Cl.Cl (stereo not shown) [1f, 1-[2-[({[3-(pentyloxy)phenyl]amino}carbonyl)oxy]-3-(dipropylammonio)propyl]-pyrrolidinium dichloride] | 16 | 16 | – | 15.8 | – | 0.06285 | 4.27 | 4.55 | 3.62 | – | 7.9 | < 3.9 | –
CCCCCCOc1cccc(NC(=O)OC(CN(CCC)CCC)CN2CCCC2)c1 (stereo not shown) [1g] | 8 (≈ 3.58 µg/mL) | 16 (≈ 7.16 µg/mL) | 3.8 (≈ 1.7 µg/mL) | – | < 3.8 | 0.06105 | 4.13 | 4.54 | 3.48 | 15.4 (≈ 6.89 µg/mL) | – | – | –
CCCCCCCOc1cccc(NC(=O)OC(CN(CCC)CCC)CN2CCCC2)c1.Cl.Cl (stereo not shown) [1h, 1-[2-[({[3-(heptyloxy)phenyl]amino}carbonyl)oxy]-3-(dipropylammonio)propyl]pyrrolidinium dichloride] | 4 | 8 | – | 15 | – | 0.05786 | 4.27 | 4.66 | 3.63 | – | 1.9 | < 3.7 | <3.7
